What all share (test): Screen Quest Fluo-8 No Wash Calcium Assay (Bz-ATP evoked Ca2+ influx, FLIPR)
Type in all cases: cell-based

Assay [1] deals with T1, P2X7 receptor (Homo sapiens, UniProt Q99572).
T1 sequence (Q99572 1-595): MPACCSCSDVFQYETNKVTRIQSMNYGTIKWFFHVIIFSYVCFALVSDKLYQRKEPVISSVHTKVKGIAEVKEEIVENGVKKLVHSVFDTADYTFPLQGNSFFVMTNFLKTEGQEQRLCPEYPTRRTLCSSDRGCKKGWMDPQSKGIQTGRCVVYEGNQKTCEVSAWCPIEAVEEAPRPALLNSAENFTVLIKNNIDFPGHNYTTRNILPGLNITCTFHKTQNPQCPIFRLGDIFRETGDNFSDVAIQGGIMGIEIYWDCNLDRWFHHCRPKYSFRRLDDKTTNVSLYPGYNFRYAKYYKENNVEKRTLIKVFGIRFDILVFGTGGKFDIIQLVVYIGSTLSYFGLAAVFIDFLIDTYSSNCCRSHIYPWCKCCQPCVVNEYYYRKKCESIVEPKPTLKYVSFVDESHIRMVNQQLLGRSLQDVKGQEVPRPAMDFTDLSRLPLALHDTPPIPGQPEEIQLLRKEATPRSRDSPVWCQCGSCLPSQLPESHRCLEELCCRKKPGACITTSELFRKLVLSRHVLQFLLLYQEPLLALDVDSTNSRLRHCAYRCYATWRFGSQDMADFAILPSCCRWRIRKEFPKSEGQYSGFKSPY
Details: hP2X7 (IC50; nM); other: hP2X7; HEK-293 cells stably transfected with P2X7 receptor, Bz-ATP at EC80, Fluo-8 NW; potency. The note with it: hP2X7; HEK-293 cells stably transfected with P2X7 receptor, Bz-ATP at EC80, Fluo-8 NW; potency ranges A-D. The method in brief: (§1)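 HEK-293 cells stably expressing P2X7 were loaded with Fluo-8 NW for 1 h at RT, then given compound, and 5 min later Bz-ATP at EC80. Fluorescence was read by FLIPR in low divalent cation buffer (0.3 mM Ca2+, 0 mM Mg2+). IC50 came from percent inhibition relative to reference antagonist A438079.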

Assay [2] has as its target T2, P2X7 receptor (Mus musculus, UniProt Q9Z1M0).
T2 construct: mP2X7 (IC50; nM); other: mP2X7; HEK-293 cells stably transfected with P2X7 receptor, Bz-ATP at EC80, Fluo-8 NW; potency
T2 sequence (Q9Z1M0 1-595): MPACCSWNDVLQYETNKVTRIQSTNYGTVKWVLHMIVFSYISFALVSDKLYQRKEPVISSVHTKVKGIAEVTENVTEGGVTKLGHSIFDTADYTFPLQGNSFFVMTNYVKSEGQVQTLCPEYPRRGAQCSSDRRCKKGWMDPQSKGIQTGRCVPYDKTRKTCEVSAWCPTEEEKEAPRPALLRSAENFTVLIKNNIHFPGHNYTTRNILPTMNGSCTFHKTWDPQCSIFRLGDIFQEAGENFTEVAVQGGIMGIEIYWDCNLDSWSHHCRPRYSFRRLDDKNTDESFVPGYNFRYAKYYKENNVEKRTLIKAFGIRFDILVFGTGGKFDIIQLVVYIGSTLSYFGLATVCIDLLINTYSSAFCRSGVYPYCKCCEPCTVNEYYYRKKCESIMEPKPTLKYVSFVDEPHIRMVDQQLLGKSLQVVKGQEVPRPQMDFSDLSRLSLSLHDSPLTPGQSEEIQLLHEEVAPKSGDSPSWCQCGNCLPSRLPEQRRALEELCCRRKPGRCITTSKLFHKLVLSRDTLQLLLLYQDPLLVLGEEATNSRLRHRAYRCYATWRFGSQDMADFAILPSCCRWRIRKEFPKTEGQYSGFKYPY
The note with it: mP2X7; HEK-293 cells stably transfected with P2X7 receptor, Bz-ATP at EC80, Fluo-8 NW; potency ranges A-D. The procedure, abridged: as §1

The target of assay [3] is T3, P2X7 receptor (Rattus norvegicus, UniProt Q64663).
T3 construct: rP2X7 (IC50; nM); other: rP2X7; HEK-293 cells stably transfected with P2X7 receptor, Bz-ATP at EC80, Fluo-8 NW; potency
T3 sequence (Q64663 1-595): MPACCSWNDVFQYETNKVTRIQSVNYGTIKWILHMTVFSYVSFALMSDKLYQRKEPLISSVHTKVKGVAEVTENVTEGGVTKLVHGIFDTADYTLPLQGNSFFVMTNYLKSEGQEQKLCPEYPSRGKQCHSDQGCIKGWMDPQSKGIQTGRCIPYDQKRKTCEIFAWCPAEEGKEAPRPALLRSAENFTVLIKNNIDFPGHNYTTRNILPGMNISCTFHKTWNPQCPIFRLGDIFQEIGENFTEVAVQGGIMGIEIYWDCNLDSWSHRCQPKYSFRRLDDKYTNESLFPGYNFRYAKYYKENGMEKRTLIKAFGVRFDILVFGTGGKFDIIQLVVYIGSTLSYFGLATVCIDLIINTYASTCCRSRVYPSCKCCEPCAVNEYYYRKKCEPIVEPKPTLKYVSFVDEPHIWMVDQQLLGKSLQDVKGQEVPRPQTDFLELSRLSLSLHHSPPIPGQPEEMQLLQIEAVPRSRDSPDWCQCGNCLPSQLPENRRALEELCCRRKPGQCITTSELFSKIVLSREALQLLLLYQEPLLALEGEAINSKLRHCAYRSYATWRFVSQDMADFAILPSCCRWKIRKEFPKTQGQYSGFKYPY
The note with it: rP2X7; HEK-293 cells stably transfected with P2X7 receptor, Bz-ATP at EC80, Fluo-8 NW; potency ranges A-D. The procedure, abridged:
as §1

IC50 data for 19 molecules are collected here from patent US11623919B2, “Heterocyclic P2X7 antagonists” (AXXAM S.P.A., priority 2017, dated 2023).

SMILES strings stand for the structures. A value given as a limit tells only on which side of the number the result lay.

One may read the IC50 as the point on the concentration scale where inhibition reaches its midpoint. On to `O=c1onc(Cc2c(F)cccc2Cl)n1CC1CC2C(C1)C2(F)F` (stereo not drawn) [Example 173, 3-[(2-chloro-6-fluorophenyl)methyl]-4-({6,6-difluorobicyclo[3.1.0]-hexan-3-yl}methyl)-4,5-dihydro-1,2,4-oxadiazol-5-one], for which the results for the IC50 on P2X7 receptor [1], on P2X7 receptor [2] and at P2X7 receptor [3] were < 200 nM, 200 to 1000 nM and < 200 nM, respectively.
Turning to `Cn1c(Cc2c(F)cccc2Cl)noc1=O` [Example 174, 3-[(2-chloro-6-fluorophenyl)methyl]-4-methyl-4,5-dihydro-1,2,4-oxadiazol-5-one], the IC50 on P2X7 receptor [1], at P2X7 receptor [2] and on P2X7 receptor [3] was > 10000 nM throughout.
`CCn1c(Cc2c(F)cccc2Cl)noc1=O` [Example 175, 3-[(2-chloro-6-fluorophenyl)methyl]-4-ethyl-4,5-dihydro-1,2,4-oxadiazol-5-one]: the IC50 on P2X7 receptor [1], at P2X7 receptor [2] and on P2X7 receptor [3] was > 10000 nM in each case.
With `CCCn1c(Cc2c(F)cccc2Cl)noc1=O` [Example 176, 3-[(2-chloro-6-fluorophenyl)methyl]-4-propyl-4,5-dihydro-1,2,4-oxadiazol-5-one], the IC50 on P2X7 receptor [1], at P2X7 receptor [2] and on P2X7 receptor [3] was > 10000 nM each time.
`CCCCn1c(Cc2c(F)cccc2Cl)noc1=O` [Example 177, 4-butyl-3-[(2-chloro-6-fluorophenyl)methyl]-4,5-dihydro-1,2,4-oxadiazol-5-one]: the IC50 at P2X7 receptor [1] is 1000 to 10000 nM; on P2X7 receptor [2] it was > 10000 nM; at P2X7 receptor [3], 1000 to 10000 nM.
Turning to `CC(C)Cn1c(Cc2c(F)cccc2Cl)noc1=O` [Example 178, 3-[(2-chloro-6-fluorophenyl)methyl]-4-(2-methylpropyl)-4,5-dihydro-1,2,4-oxadiazol-5-one], the IC50 on P2X7 receptor [1] was 1000 to 10000 nM; on P2X7 receptor [2], > 10000 nM; on P2X7 receptor [3] it was > 10000 nM.
With `O=c1onc(Cc2c(F)cccc2Cl)n1CCCC1CCCCC1` [Example 179, 3-[(2-chloro-6-fluorophenyl)methyl]-4-(3-cyclohexylpropyl)-4,5-dihydro-1,2,4-oxadiazol-5-one], the figures for the IC50 on P2X7 receptor [1], at P2X7 receptor [2] and at P2X7 receptor [3] were 1000 to 10000 nM, 1000 to 10000 nM and > 10000 nM, respectively.
On to `O=c1onc(Cc2c(F)cccc2Cl)n1CCCN1CCCCC1` [Example 180, 3-[(2-chloro-6-fluorophenyl)methyl]-4-[3-(piperidin-1-yl)propyl]-4,5-dihydro-1,2,4-oxadiazol-5-one], for which the IC50 on P2X7 receptor [1], at P2X7 receptor [2] and on P2X7 receptor [3] was > 10000 nM in each case.
On to `O=c1onc(Cc2c(F)cccc2Cl)n1CCN1CCC(F)(F)CC1` [Example 181, 3-[(2-chloro-6-fluorophenyl)methyl]-4-[2-(4,4-difluoropiperidin-1-yl)ethyl]-4,5-dihydro-1,2,4-oxadiazol-5-one], for which the values for the IC50 at P2X7 receptor [1], at P2X7 receptor [2] and on P2X7 receptor [3] were 200 to 1000 nM, 1000 to 10000 nM and 1000 to 10000 nM, respectively.
For `O=c1onc(Cc2c(F)cccc2Cl)n1CCCN1CCC(F)(F)CC1` [Example 182, 3-[(2-chloro-6-fluorophenyl)methyl]-4-[3-(4,4-difluoropiperidin-1-yl)propyl]-4,5-dihydro-1,2,4-oxadiazol-5-one], the results for the IC50 at P2X7 receptor [1], at P2X7 receptor [2] and at P2X7 receptor [3] were 1000 to 10000 nM, > 10000 nM and > 10000 nM, respectively.
Consider `O=c1onc(Cc2c(F)cccc2Cl)n1CC1CC=CC1` [Example 183, 3-[(2-chloro-6-fluorophenyl)methyl]-4-(cyclopent-3-en-1-ylmethyl)-4,5-dihydro-1,2,4-oxadiazol-5-one], for which the IC50 is 200 to 1000 nM on P2X7 receptor [1], 1000 to 10000 nM on P2X7 receptor [2] and 200 to 1000 nM at P2X7 receptor [3].
As to `O=c1onc(Cc2c(F)cccc2Cl)n1CC1CCC(C(F)(F)F)CC1` (stereo not drawn) [Example 184, 3-[(2-chloro-6-fluorophenyl)methyl]-4-{[4-(trifluoromethyl)cyclohexyl]methyl}-1,2,4-oxadiazol-5(4H)-one], the IC50 on P2X7 receptor [1], on P2X7 receptor [2] and at P2X7 receptor [3] was < 200 nM throughout.
Consider `O=c1onc(Cc2c(F)cccc2Cl)n1CC1CCC(F)CC1` (stereo not drawn) [Example 185, 3-[(2-chloro-6-fluorophenyl)methyl]-4-[(4-fluorocyclohexyl)methyl]-4,5-dihydro-1,2,4-oxadiazol-5-one], for which the IC50 on P2X7 receptor [1], at P2X7 receptor [2] and on P2X7 receptor [3] was < 200 nM in each case.
In the case of `CC(c1ccccc1)n1c(CC2CCC(F)(F)CC2)noc1=O` (stereo not drawn) [Example 188, 3-[(4,4-difluorocyclohexyl)methyl]-4-(1-phenylethyl)-4,5-dihydro-1,2,4-oxadiazol-5-one], the IC50 on P2X7 receptor [1], on P2X7 receptor [2] and at P2X7 receptor [3] was 1000 to 10000 nM in each case.
For the molecule `O=c1onc(CC2CCC(F)(F)CC2)n1Cc1ccc(C(F)(F)F)nc1` [Example 189, 3-[(4,4-difluorocyclohexyl)methyl]-4-{[6-(trifluoromethyl)pyridin-3-yl]methyl}-4,5-dihydro-1,2,4-oxadiazol-5-one], the IC50 on P2X7 receptor [1], on P2X7 receptor [2] and on P2X7 receptor [3] was > 10000 nM each time.
For the molecule `O=c1onc(CC2CCC(F)(F)CC2)n1Cc1ncc(F)cn1` [Example 190, 3-[(4,4-difluorocyclohexyl)methyl]-4-[(5-fluoropyrimidin-2-yl)methyl]-4,5-dihydro-1,2,4-oxadiazol-5-one], the IC50 at P2X7 receptor [1], at P2X7 receptor [2] and at P2X7 receptor [3] was > 10000 nM in each case.
For `O=c1onc(CC2CCC(F)(F)CC2)n1Cc1nccs1` [Example 191, 3-[(4,4-difluorocyclohexyl)methyl]-4-(1,3-thiazol-2-ylmethyl)-4,5-dihydro-1,2,4-oxadiazol-5-one], the IC50 on P2X7 receptor [1] was 1000 to 10000 nM; at P2X7 receptor [2], > 10000 nM; at P2X7 receptor [3], 200 to 1000 nM.
For `Cc1nc(C(F)(F)F)ccc1Cn1c(CC2CCC(F)(F)CC2)noc1=O` [Example 192, 3-[(4,4-difluorocyclohexyl)methyl]-4-{[2-methyl-6-(trifluoromethyl)-pyridin-3-yl]methyl}-4,5-dihydro-1,2,4-oxadiazol-5-one] the same measures were > 10000 nM, > 10000 nM and > 10000 nM.
For `O=c1onc(CC2CCC(F)(F)CC2)n1Cc1cncs1` [Example 193, 3-[(4,4-difluorocyclohexyl)methyl]-4-[(1,3-thiazol-5-yl)methyl]-1,2,4-oxadiazol-5(4H)-one] the same measures were 1000 to 10000 nM, 1000 to 10000 nM and 200 to 1000 nM.
